Experimental data: patent US20110257220A1, “3,11 b-cis-Dihydrotetrabenazine for the Treatment of Schizophrenia and Other Psychoses” (CAMBRIDGE LABORATORIES (IRELAND) LIMITED, priority 2005, published 2011)

Legend:
[1] = target: T1, Dopamine Transporter (DAT) (Homo sapiens, UniProt Q01959); experiment: Dopamine transporter radioligand binding ([125I] RTI-55); conditions: 10 μM solution; for inhibition at 10 µM: read-out: Percentage Inhibition of Specific Binding, DAT
T1 construct: expressed in transfected cells; host or cells: CHO cells
Procedure: (§1) The four dihydrotetrabenazine isomers A, B, C and D were subjected to specific binding assays to test their ability to bind to the receptors and transporter proteins described below. The results are set out in Table 5
(j) Dopamine Transporter (DAT):
• Reference: Giros et al., Trends Pharmacol. Sci., 14, 43-49 (1993) Gu et al., J. Biol. Chem., 269(10):7124-7130 (1994) • Source: Human recombinant CHO cells • Ligand: 0.15 nM [^125I]

[2] = tested on: Imidazoline I2 (Central) Receptor; experiment: Imidazoline I2 (central) receptor radioligand binding ([3H] Idazoxan); design: species or system Wistar rat; conditions: 10 μM solution
Procedure: as §1
(f) Imidazoline I2 (Central) Receptor:
• Reference: Brown et al., Brit. I Pharmacol., 99:803-809, (1990) • Source: Wistar rat cerebral cortex • Ligand: 2 nM [3H] Idazoxan • Vehicle: 1% DMSO • Incubation time/Temp: 30 minutes @ 25° C. • Incubation buffer: 50 mM Tris-HCl, 0.5 mM EDTA, pH 7.4 at 25° C. • Non Specific ligand: 1 μM Idazoxan • Kd: 4 nM • Bmax: 0.14 pmole/mg protein • Specific binding: 85% • Quantitation method: Radioligand binding • Significance criteria: ≧50% of maximum stimulation or inhibition

Sigma σ2 Receptor = target: T2, Sigma σ2 Receptor (Rattus norvegicus, UniProt Q5U3Y7); experiment: Sigma σ2 receptor radioligand binding ([3H] Ifenprodil); design: species or system Wistar rat; conditions: 10 μM solution; for inhibition at 10 µM: read-out: Percentage Inhibition of Specific Binding, σ2 Receptor
T2 construct: from tissue; host or cells: Wistar rat brain
T2 sequence (Q5U3Y7 1-176): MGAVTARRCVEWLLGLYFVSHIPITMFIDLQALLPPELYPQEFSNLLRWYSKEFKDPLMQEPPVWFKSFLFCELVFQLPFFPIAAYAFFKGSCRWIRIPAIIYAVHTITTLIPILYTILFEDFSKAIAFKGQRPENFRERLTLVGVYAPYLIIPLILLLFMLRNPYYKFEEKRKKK
Procedure: as §1
• Reference: Hashimoto et al., Eur. J. Pharmacol., 236:159-163, (1993) • Source: Wistar rat brain • Ligand: 3 nM [3H]

[3] = target: T3, Serotonin (5-hydroxytryptamine) 5-HT6 Receptor (Homo sapiens, UniProt P50406); experiment: 5-HT6 receptor radioligand binding ([3H] LSD); conditions: 10 μM solution; for inhibition at 10 µM: read-out: Percentage Inhibition of Specific Binding, 5-HT6 receptor
T3 construct: expressed in transfected cells; host or cells: HeLa cells
Text: as §1

Dopamine D2L Receptor = target: T4, Dopamine D2L Receptor (Homo sapiens, UniProt P14416); experiment: Dopamine D2L receptor radioligand binding ([3H] Spiperone); conditions: 10 μM solution; for inhibition at 10 µM: read-out: Percentage Inhibition of Specific Binding, D2L Receptor
T4 construct: expressed in transfected cells; host or cells: CHO cells
Procedure: as §1
(d) Dopamine D2L, Receptor:
• Reference: Bunzo et al., Nature, 336:783-787 (1988) • Source: Human recombinant CHO cells • Ligand: 0.16 nM [3H]

Dopamine D1 Receptor = target: T5, Dopamine D1 Receptor (Homo sapiens, UniProt P21728); experiment: Dopamine D1 receptor radioligand binding ([3H] SCH-23390); conditions: 10 μM solution; for inhibition at 10 µM: read-out: Percentage Inhibition of Specific Binding, D1 Receptor
T5 construct: expressed in transfected cells; host or cells: CHO cells
Procedure: as §1
(c) Dopamine D1 Receptor:
• Reference: Dearry et al., Nature, 347:72-76, (1990) • Source: Human recombinant CHO cells • Ligand: 1.4 nM [3H]

Adrenergic α2A Receptor = target: T6, Adrenergic α2A Receptor (Homo sapiens, UniProt P08913); experiment: Adrenergic α2A receptor radioligand binding ([3H] MK-912); conditions: 10 μM solution; for inhibition at 10 µM: read-out: Percentage Inhibition of Specific Binding, α2A Receptor
T6 construct: expressed in transfected cells; host or cells: insect Sf9 cells
T6 sequence (P08913 1-465): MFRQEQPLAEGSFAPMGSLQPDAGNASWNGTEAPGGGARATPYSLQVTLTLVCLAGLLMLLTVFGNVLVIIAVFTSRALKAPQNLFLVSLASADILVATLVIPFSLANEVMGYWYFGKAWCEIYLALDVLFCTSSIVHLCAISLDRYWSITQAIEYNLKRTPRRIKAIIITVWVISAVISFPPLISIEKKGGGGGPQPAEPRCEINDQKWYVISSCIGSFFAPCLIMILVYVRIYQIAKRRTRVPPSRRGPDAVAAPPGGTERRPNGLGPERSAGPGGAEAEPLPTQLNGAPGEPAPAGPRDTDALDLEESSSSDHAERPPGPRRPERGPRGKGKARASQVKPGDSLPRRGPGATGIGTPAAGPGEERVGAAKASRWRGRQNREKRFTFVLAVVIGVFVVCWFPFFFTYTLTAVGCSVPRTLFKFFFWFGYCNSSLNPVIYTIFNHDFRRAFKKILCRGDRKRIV
Procedure: as §1
(a) Adrenergic α2A Receptor:
• Reference: S. Uhlen et al. J. Pharmacol. Exp. Ther., 271:1558-1565 (1994) • Source: Human recombinant insect Sf9 cells • Ligand: 1 nM [^3H]

Sigma σ1 Receptor = target: T7, Sigma σ1 Receptor (Homo sapiens, UniProt Q99720); experiment: Sigma σ1 receptor radioligand binding ([3H] Haloperidol); conditions: 10 μM solution; for inhibition at 10 µM: read-out: Percentage Inhibition of Specific Binding, σ1 Receptor
T7 construct: endogenous in cells; host or cells: Jurkat cells
Procedure: as §1
• Reference: Ganaphthy et al., Pharmacol. Exp. Ther., 289:251-260, (1999) • Source: Human jurkat cells • Ligand: 8 nM [3H]

[4] = target: T8, Serotonin (5-hydroxytryptamine) 5-HT2b Receptor (Homo sapiens, UniProt P41595); experiment: 5-HT2b receptor radioligand binding ([3H] LSD); conditions: 10 μM solution; for inhibition at 10 µM: read-out: Percentage Inhibition of Specific Binding, 5-HT2b receptor
T8 construct: expressed in transfected cells; host or cells: CHO-K1 cells

Adrenergic α2B Receptor = target: T9, Adrenergic α2B Receptor (Homo sapiens, UniProt P18089); experiment: Adrenergic α2B receptor radioligand binding ([3H] Rauwolscine); conditions: 10 μM solution; for inhibition at 10 µM: read-out: Percentage Inhibition of Specific Binding, α2B Receptor
T9 construct: expressed in transfected cells; host or cells: CHO-K1 cells
T9 sequence (P18089 1-450): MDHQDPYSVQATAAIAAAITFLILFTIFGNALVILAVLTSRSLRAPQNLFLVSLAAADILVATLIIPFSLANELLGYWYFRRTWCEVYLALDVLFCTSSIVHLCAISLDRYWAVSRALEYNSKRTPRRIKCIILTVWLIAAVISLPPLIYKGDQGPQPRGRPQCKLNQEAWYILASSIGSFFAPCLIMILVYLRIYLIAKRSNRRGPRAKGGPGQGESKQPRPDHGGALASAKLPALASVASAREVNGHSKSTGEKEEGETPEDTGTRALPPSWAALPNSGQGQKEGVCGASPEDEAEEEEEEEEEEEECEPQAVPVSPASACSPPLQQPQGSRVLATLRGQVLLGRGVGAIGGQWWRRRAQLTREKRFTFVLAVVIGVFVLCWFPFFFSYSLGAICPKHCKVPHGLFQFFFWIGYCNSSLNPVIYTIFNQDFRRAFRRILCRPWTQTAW
Procedure: as §1
(b) Adrenergic α2B Receptor:
• Reference: S. Uhlen et al., Eur. I Pharmacol., 33 (1): 93-1-1 (1998) • Source: Human recombinant CHO-K1 cells • Ligand: 2.5 nM [3H]

Dopamine D3 Receptor = target: T10, Dopamine D3 Receptor (Homo sapiens, UniProt P35462); experiment: Dopamine D3 receptor radioligand binding ([3H] Spiperone); conditions: 10 μM solution; for inhibition at 10 µM: read-out: Percentage Inhibition of Specific Binding, D3 Receptor
T10 construct: expressed in transfected cells; host or cells: CHO cells
Procedure: as §1
(e) Dopamine D3 Receptor:
• Reference: Sokoloff et al., Nature, 347:146-151, (1990) • Source: Human recombinant CHO cells • Ligand: 0.7 nM [3H]

T7 sequence (Q99720 whole entry): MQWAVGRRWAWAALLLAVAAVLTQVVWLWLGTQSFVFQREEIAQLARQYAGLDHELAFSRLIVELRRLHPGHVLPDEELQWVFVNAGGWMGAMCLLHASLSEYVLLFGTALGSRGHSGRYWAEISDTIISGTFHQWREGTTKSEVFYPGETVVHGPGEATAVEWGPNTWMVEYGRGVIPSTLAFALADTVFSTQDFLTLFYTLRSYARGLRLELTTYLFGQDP
T8 sequence (P41595 whole entry): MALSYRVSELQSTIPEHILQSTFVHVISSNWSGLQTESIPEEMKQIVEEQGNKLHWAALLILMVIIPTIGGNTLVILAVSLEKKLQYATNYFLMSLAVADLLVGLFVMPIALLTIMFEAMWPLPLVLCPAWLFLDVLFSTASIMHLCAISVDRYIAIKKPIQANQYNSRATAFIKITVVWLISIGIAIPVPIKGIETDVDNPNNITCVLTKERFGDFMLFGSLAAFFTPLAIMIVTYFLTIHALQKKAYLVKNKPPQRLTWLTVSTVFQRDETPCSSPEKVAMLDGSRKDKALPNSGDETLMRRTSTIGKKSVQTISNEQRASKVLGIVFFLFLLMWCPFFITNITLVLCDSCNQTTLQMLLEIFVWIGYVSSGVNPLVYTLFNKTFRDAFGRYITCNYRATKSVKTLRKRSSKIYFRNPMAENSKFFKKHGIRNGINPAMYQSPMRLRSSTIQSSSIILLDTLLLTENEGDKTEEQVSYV
T1 sequence (Q01959 whole entry): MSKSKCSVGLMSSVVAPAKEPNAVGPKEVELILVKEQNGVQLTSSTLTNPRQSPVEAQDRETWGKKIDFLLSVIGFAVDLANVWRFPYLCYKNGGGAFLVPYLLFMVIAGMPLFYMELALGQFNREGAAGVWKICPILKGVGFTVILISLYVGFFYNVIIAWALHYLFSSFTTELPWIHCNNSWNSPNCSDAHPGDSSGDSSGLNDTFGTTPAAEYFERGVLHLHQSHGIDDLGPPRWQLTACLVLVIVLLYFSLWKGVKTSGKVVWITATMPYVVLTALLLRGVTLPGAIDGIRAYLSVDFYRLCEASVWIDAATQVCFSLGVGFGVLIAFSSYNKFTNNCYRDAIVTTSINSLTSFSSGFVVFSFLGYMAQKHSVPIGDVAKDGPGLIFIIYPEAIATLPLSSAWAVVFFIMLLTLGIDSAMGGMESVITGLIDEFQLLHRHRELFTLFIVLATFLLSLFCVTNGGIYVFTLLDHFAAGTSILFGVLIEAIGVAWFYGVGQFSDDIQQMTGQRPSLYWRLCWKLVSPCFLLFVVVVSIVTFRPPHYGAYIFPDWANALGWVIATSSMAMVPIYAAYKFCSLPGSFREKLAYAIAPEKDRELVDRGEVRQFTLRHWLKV
T5 sequence (P21728 whole entry): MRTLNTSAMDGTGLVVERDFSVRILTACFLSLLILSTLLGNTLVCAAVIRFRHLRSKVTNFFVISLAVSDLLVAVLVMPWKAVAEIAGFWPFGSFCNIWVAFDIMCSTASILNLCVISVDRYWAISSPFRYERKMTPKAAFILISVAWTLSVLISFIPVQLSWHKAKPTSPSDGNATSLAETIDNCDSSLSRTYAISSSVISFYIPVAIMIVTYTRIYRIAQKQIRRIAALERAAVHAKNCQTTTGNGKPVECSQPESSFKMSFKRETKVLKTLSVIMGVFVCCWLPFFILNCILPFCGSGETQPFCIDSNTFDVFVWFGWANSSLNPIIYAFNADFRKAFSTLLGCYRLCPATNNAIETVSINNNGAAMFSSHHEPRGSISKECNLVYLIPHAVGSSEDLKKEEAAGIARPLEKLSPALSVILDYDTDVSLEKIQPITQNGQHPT
T3 sequence (P50406 whole entry): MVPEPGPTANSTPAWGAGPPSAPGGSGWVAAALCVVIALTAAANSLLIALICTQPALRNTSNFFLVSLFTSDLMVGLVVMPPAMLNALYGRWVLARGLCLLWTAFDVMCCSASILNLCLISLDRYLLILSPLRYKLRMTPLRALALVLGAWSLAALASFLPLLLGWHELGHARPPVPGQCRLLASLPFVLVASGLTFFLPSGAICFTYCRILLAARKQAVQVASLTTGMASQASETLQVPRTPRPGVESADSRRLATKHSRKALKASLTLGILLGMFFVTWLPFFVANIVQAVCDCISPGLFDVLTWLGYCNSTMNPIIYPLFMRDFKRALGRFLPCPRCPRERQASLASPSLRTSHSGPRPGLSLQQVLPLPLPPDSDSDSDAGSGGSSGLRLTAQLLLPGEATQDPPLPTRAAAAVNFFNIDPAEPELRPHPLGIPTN
T10 sequence (P35462 whole entry): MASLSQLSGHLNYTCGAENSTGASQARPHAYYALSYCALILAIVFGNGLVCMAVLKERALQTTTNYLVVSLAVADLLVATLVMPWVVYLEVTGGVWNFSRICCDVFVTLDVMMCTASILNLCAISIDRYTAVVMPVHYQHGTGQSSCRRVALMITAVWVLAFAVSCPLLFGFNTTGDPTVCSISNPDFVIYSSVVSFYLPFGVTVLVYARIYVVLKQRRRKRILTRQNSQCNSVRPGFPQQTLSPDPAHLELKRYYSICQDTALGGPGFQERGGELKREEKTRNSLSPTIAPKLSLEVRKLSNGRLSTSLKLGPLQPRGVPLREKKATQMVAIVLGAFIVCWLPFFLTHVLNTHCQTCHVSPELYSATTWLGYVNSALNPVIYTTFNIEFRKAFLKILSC
T4 sequence (P14416 whole entry): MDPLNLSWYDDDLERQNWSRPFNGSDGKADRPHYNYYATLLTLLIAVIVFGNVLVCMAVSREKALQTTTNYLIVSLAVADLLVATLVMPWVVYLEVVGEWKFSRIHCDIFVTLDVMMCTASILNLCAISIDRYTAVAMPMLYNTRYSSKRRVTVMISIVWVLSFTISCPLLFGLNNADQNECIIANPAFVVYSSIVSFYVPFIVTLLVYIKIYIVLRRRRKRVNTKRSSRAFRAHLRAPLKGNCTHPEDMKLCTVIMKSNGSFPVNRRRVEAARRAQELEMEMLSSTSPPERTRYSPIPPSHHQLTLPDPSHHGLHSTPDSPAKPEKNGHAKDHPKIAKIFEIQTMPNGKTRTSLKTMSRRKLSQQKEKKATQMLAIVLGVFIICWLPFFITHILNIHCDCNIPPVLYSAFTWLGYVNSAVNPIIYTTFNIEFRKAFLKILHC

SMILES | inhibition at 10 µM [1] | Percentage Inhibition of Specific Binding, I2 Receptor [2] | inhibition at 10 µM (Sigma σ2 Receptor) | inhibition at 10 µM [3] | inhibition at 10 µM (Dopamine D2L Receptor) | inhibition at 10 µM (Dopamine D1 Receptor) | inhibition at 10 µM (Adrenergic α2A Receptor) | inhibition at 10 µM (Sigma σ1 Receptor) | inhibition at 10 µM [4] | inhibition at 10 µM (Adrenergic α2B Receptor) | inhibition at 10 µM (Dopamine D3 Receptor) | further results
COc1cc2c(cc1OC)[C@@H]1C[C@@H](O)[C@H](CC(C)C)CN1CC2 (single isomer, unassigned) [Isomer A] | 3% | 74% | 64% | 51% | 87% | 78% | 86% | 48% | 74% | 44% | 69% | –
COc1cc2c(cc1OC)[C@H]1C[C@H](O)[C@@H](CC(C)C)CN1CC2 (single isomer, unassigned) [Isomer B] | 4% | 8% | 64% | 10% | 16% | 1% | 12% | 82% | 10% | 14% | 7% | –
COc1cc2c(cc1OC)C1CC(O)C(CC(C)C)CN1CC2 (single isomer, unassigned) [Isomer C] | -2% | 0% | 61% | 10% | -14% | 6% | 13% | 59% | 14% | -7% | 9% | –
COc1cc2c(cc1OC)[C@H]1C[C@@H](O)[C@H](CC(C)C)CN1CC2 (single isomer, unassigned; isomer d) [Isomer D] | – | 55% | – | – | – | – | – | – | – | – | – | Percentage Inhibition of Specific Binding, DAT [1]: 2%; Percentage Inhibition of Specific Binding, σ2 Receptor (Sigma σ2 Receptor): 69%; Percentage Inhibition of Specific Binding, 5-HT6 receptor [3]: 41%; Percentage Inhibition of Specific Binding, D2L Receptor (Dopamine D2L Receptor): 58%; Percentage Inhibition of Specific Binding, D1 Receptor (Dopamine D1 Receptor): 38%; Percentage Inhibition of Specific Binding, α2A Receptor (Adrenergic α2A Receptor): 87%; Percentage Inhibition of Specific Binding, σ1 Receptor (Sigma σ1 Receptor): 82%; Percentage Inhibition of Specific Binding, 5-HT2b receptor [4]: 43%; Percentage Inhibition of Specific Binding, α2B Receptor (Adrenergic α2B Receptor): 50%; Percentage Inhibition of Specific Binding, D3 Receptor (Dopamine D3 Receptor): 63%
